According to ChEMBL document CHEMBL5543140 (J Med Chem, 2024):
Active and inactive are the calls of the source. No cut-off for these calls is given here.

Columns and labels:
[1] = target: T1, 5-hydroxytryptamine receptor 2B (Homo sapiens, UniProt P41595); experiment: Binding affinity to human [125I]LSD-labeled 5-HT2B receptor expressed in CHO cell membrane incubated for 60 mins; format: cell membranes
[2] = target: 5-hydroxytryptamine receptor 1A (Homo sapiens, UniProt P08908); experiment: Displacement of [3H]-8-OH-DPAT from 5-HT1A receptor (unknown origin) assessed as inhibition binding
[3] = target: 5-hydroxytryptamine receptor 5A (Homo sapiens) (UniProt P47898); experiment: Binding affinity to human 5-HT5A receptor (unknown origin) at 10 uM by radioligand displacement assay
Chain of 5-hydroxytryptamine receptor 5A (Homo sapiens) (P47898 whole entry): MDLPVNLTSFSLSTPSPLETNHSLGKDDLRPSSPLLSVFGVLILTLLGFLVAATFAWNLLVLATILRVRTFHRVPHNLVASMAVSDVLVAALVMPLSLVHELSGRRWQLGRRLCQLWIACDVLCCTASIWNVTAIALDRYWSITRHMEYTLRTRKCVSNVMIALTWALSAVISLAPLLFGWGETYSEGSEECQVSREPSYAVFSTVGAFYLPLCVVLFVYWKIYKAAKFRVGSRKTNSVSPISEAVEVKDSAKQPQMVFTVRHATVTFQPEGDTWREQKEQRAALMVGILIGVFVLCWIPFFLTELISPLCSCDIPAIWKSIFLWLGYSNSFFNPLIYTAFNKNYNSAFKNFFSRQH

[4] = target: T1, 5-hydroxytryptamine receptor 2B; experiment: Agonist activity at human 5-HT2B receptor expressed in CHO cells assessed as maximal IP2 production measured after 30 mins incubation by HTRF assay relative to control; format: functional, cell-based; details: read-out: EC50
[5] = target: T2, 5-hydroxytryptamine receptor 1A (Homo sapiens) (UniProt P08908); experiment: Agonist activity at human 5-HT1A receptor expressed in HEK293T cells co-transfected with 22F-Glosensor assessed as maximal inhibition of cAMP production measured after 30 mins incubation by Microbeta2Micro-plate counter analysis relative to control; format: functional, cell-based; details: filed as agonist
T2 sequence (whole entry): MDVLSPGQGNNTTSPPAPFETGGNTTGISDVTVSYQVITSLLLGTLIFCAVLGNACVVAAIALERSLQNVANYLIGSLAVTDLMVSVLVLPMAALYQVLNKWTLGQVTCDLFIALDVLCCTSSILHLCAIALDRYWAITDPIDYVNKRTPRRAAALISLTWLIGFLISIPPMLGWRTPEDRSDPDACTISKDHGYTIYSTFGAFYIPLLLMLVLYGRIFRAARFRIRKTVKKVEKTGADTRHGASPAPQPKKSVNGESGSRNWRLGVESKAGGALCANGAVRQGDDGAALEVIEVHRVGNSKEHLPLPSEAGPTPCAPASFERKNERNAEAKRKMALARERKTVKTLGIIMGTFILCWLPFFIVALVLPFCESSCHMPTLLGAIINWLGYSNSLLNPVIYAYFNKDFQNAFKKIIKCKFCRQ

[6] = target: Muscarinic acetylcholine receptor M5 (Homo sapiens) (UniProt P08912); experiment: Displacement of [3H]4-DAMP from human recombinant muscarinic M5 receptor expressed in HEK293 cells at 10 uM incubated for 60 mins by radiometric based scintillation counter assay relative to control; format: cell-based
Chain of Muscarinic acetylcholine receptor M5 (Homo sapiens) (P08912 whole entry): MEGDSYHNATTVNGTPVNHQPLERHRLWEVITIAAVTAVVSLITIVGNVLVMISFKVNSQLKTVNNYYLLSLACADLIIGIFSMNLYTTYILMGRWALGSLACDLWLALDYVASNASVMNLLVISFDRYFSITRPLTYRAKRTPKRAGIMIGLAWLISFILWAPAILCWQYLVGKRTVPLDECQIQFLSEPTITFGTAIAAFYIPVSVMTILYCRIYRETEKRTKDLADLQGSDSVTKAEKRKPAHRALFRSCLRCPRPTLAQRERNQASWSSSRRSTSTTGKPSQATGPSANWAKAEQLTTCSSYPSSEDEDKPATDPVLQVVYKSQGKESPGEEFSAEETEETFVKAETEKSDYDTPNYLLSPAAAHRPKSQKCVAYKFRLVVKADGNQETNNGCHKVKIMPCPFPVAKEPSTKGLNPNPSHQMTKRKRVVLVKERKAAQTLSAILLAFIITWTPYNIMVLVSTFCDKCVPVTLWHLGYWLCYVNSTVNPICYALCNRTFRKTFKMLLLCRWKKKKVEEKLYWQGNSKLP

[7] = test system: Mus musculus; experiment: Psychedelic effect in C57BL/6J mouse assessed as induction of 5-HT2A receptor dependent maximal head-twitch responses by visual observation at 1 mg/kg, sc at 40 mins post- administration; format: functional, organism-based
[8] = Cmax in mouse C57BL/6J brain at 3 mg/kg, sc measured after 2 hrs; format: ADME, organism-based
[9] = test system: Mus musculus; experiment: Psychedelic effect in C57BL/6J mouse assessed as number of 5-HT2A receptor dependent head-twitch responses by visual observation at 3 mg/kg, sc in presence of ketanserin 1 mg/kg, sc measured after 24 hrs; format: functional
[10] = Ex vivo binding in C57BL/6J mouse brain frontal cortex assessed as specific binding [3H]Cimbi-36 at 1 mg/kg, sc measured after 5 mins by liquid scintillation counting analysis (reference value: 1092 +/- 53); format: functional
[11] = Ex vivo binding in C57BL/6J mouse brain frontal cortex assessed as specific binding [3H]Cimbi-36 at 1 mg/kg, sc measured after 220 mins by liquid scintillation counting analysis (reference value: 1092 +/- 53); format: functional; details: 3.667 h
[12] = Ex vivo binding in C57BL/6J mouse brain frontal cortex assessed as specific binding [3H]Cimbi-36 at 1 mg/kg, sc measured after 360 mins by liquid scintillation counting analysis (reference value: 1092 +/- 53); format: functional; details: 6 h
[13] = Ex vivo binding in C57BL/6J mouse brain frontal cortex assessed as inhibition of [3H]Cimbi-36 binding at 1 mg/kg, sc measured after 160 mins by liquid scintillation counting analysis (reference value: 0%); format: functional; details: 2.667 h
[14] = test system: Mus musculus; experiment: Induction of neuroplasticity in C57BL/6J mouse assessed as increase in BDNF mRNA expression in brain frontal cortex at 3 mg/kg, sc single dose by RT-PCR analysis; format: functional, organism-based
[15] = test system: Hippocampus; experiment: Induction of neuroplasticity in C57BL/6J mouse assessed as increase in BDNF mRNA expression in brain hippocampus at 3 mg/kg, sc single dose by RT-PCR analysis; format: functional, organism-based
[16] = test system: Hippocampus; experiment: Induction of neuroplasticity in C57BL/6J mouse assessed as increase in PSD-95 mRNA expression in brain hippocampus at 3 mg/kg, sc single dose by RT-PCR analysis; format: functional, organism-based
[17] = test system: Hippocampus; experiment: Induction of neuroplasticity in C57BL/6J mouse assessed as increase in NPTN mRNA expression in brain hippocampus at 3 mg/kg, sc single dose by RT-PCR analysis; format: functional, organism-based
[18] = test system: Hippocampus; experiment: Induction of neuroplasticity in C57BL/6J mouse assessed as increase in […] mRNA expression in brain hippocampus at 0.3 mg/kg, sc single dose by RT-PCR analysis; format: functional, organism-based
[19] = Metabolic stability in human liver S9 fractions assessed as half life; format: ADME, subcellular; details: liver S9 fraction
[20] = Metabolic stability in mouse liver S9 fractions assessed as half life; format: ADME, subcellular; details: liver S9 fraction
[21] = Drug metabolism in human hepatocytes at 10 uM by HRAMS analysis; format: ADME, cell-based, Hepatocyte
[22] = Tmax in Wistar rat plasma at 1 mg/kg, iv measured upto 48 hrs; format: ADME, organism-based
[23] = Half life in Wistar rat plasma at 1 mg/kg, iv measured upto 48 hrs; format: ADME, organism-based
[24] = Clearance in Wistar rat plasma at 1 mg/kg, iv measured upto 48 hrs; format: ADME, organism-based
[25] = Half life in Wistar rat plasma at 5 mg/kg, po measured upto 48 hrs; format: ADME, organism-based
[26] = AUCinf in Wistar rat plasma at 5 mg/kg, po measured upto 48 hrs; format: ADME, organism-based
[27] = AUClast in Wistar rat brain at 1 mg/kg, iv measured upto 48 hrs; format: ADME, organism-based
[28] = Tmax in Wistar rat brain at 5 mg/kg, po measured upto 48 hrs; format: ADME, organism-based
[29] = Drug excretion in Wistar rat urine at 1 mg/kg, iv measured upto 48 hrs; format: ADME, organism-based; details: read-out: Drug excretion
[30] = Tmax in male Sprague-Dawley rat plasma at 1 mg/kg, iv measured upto 8 hrs by LC-MS/MS analysis; format: ADME, organism-based
[31] = Clearance in male Sprague-Dawley rat plasma at 1 mg/kg, iv measured upto 8 hrs by LC-MS/MS analysis; format: ADME, organism-based
[32] = Tmax in male Sprague-Dawley rat brain at 1 mg/kg, iv measured upto 8 hrs by LC-MS/MS analysis; format: ADME, organism-based
[33] = MRTinf in male Sprague-Dawley rat CSF at 1 mg/kg, iv measured upto 8 hrs by LC-MS/MS analysis; format: ADME, organism-based, Cerebrospinal fluid
[34] = CSF to brain ratio in male Sprague-Dawley rat at 1 mg/kg, iv measured upto 8 hrs by LC-MS/MS analysis; format: ADME, organism-based; details: in vivo

T1 sequence (P41595 whole entry): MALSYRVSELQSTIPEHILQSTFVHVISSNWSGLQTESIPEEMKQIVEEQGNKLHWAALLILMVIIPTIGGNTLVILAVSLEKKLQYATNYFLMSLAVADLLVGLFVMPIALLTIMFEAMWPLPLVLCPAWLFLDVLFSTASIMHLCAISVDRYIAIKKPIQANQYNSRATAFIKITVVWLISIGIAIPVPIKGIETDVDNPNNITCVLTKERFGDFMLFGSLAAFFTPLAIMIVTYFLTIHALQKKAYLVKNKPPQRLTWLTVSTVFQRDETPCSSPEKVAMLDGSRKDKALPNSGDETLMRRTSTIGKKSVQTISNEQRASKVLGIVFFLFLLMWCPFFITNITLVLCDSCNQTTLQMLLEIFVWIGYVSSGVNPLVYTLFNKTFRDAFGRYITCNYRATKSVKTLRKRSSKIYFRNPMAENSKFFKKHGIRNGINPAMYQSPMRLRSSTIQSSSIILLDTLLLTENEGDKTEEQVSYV

With `COc1cc([Se]C(F)(F)F)c(OC)cc1CCN.Cl` the Ki [1] was 10 nM, the Ki [2] was 32 nM and the Activity [3] was “inactive”. It also gave an EC50 [4] of 7.3 nM, an Emax [5] of 92% and an inhibition [6] of 83%. The Activity [7] was “Active”, the Cmax [8] was 3160 ng/g and the Activity [9] was 0.17. For the same compound, the Activity [10] was 947, the Activity [11] was 796 and the Activity [12] was 820. The inhibition in vivo at 1 mg/kg [13] was 33%, the Activity [14] was “Active” and the Activity [15] was “inactive”. The Activity [16] was “inactive”, the Activity [17] was “inactive” and the Activity [18] was “inactive”. For the same compound, the half-life [19] was greater than 2 h, the half-life [20] was greater than 2 h and the Drug metabolism [21] was “Metabolite_Notdetected”. It also gave a Tmax [22] of 4.98 min, a half-life [23] of 0.78 h and a clearance [24] of 328 mL/min/kg. The half-life [25] was 3.53 h, the AUC(0-inf) [26] was 49.7 ng·h/mL and the AUC(0-t) at 48 h [27] was 2910 ng·h/mL. For the same compound, the Tmax [28] was 2 h, the dose excreted at 48 h [29] was 0.07% and the Tmax [30] was 4.98 min. It also gave a clearance [31] of 79.5 mL/min/kg, a Tmax [32] of 0.25 h and an MRT inf [33] of 1.51 h. It also gave a Ratio [34] of 0.016.
